# Data from patent US11214803B2, “Modulators of YAP1 expression” (Ionis Pharmaceuticals, Inc., priority 2019, dated 2022).
# Strand notation (5' to 3'): a small letter for the sugar, then the base; units joined by * are phosphorothioate-linked, units joined directly phosphodiester-linked; [ ] holds rarer units or linkages, { } end groups; capitals alone tell only the bases. k = constrained ethyl (cEt); [5mC] = 5-methylcytosine; d = 2'-deoxy (DNA)
# System: Yap1 mRNA
# Test: Antisense inhibition of human Yap1 in A-431 cells by cEt gapmers, single dose (Example 2, RTS4814)
# Assay type: cell-based
# Conditions: A-431 cells, 5,000 cells per well, free uptake, 2,000 nM modified oligonucleotide, approx. 48 hours, RTS4814, normalized to RIBOGREEN; Table 4; asterisk (*) = targets amplicon region of primer probe set
# Summary of the method: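 A-431 cells (5,000/well) took up 2,000 nM 3-10-3 cEt gapmer by free uptake for ~48 h. Yap1 mRNA was quantified by qRT-PCR with primer probe set RTS4814, normalized to RIBOGREEN total RNA, and reported as % of untreated control.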
row,Substance,YAP1 (% UTC)
1,716487 (kA*k[5mC]*kA*d[5mC]*dA*dT*dA*d[5mC]*dT*d[5mC]*dT*dA*dG*kT*kT*kA; antisense) [Compound 716487],64
2,716532 (antisense k[5mC]*kA*kA*dG*dA*dA*dG*d[5mC]*dA*dG*dT*dT*dA*kA*kG*k[5mC]) [Compound 716532],70
3,716391 (kG*kG*kA*dG*d[5mC]*dA*d[5mC]*dT*d[5mC]*dT*dG*dA*d[5mC]*kT*kG*kA; antisense) [Compound 716391],44

# Same assay, conditions: Table 5; A-431 cells, 5,000 cells per well, free uptake, 2,000 nM modified oligonucleotide, approx. 48 hours; RTS4814; normalized to RIBOGREEN; Yap1 mRNA relative to untreated control cells
row,Substance,YAP1 (% UTC)
1,716374 (kG*kG*kT*d[5mC]*dA*dG*dT*dG*dT*d[5mC]*d[5mC]*d[5mC]*dA*kG*kG*kA; antisense) [Compound 716374],54
2,716515 (antisense kT*kA*kA*dG*d[5mC]*dT*dA*dA*dA*dG*d[5mC]*dT*dA*kA*kT*k[5mC]) [Compound 716515],123
3,716347 (kT*kG*k[5mC]*d[5mC]*dT*dT*dT*d[5mC]*d[5mC]*d[5mC]*d[5mC]*dG*d[5mC]*k[5mC]*kT*k[5mC]; antisense) [Compound 716347],85

# Same assay, conditions: Table 6; A-431 cells, 5,000 cells per well, free uptake, 2,000 nM modified oligonucleotide, approx. 48 hours; RTS4814; normalized to RIBOGREEN; Yap1 mRNA relative to untreated control cells
row,Substance,YAP1 (% UTC)
1,716363 (k[5mC]*kG*kG*dA*d[5mC]*dG*dG*d[5mC]*dG*dG*dG*d[5mC]*d[5mC]*k[5mC]*kT*kG; antisense) [Compound 716363],103
2,716426 (kT*kT*kT*dG*dA*dT*dT*d[5mC]*dT*dT*dT*dA*dG*kA*kG*k[5mC]; antisense) [Compound 716426],45
3,716492 (kA*kA*kA*d[5mC]*dA*d[5mC]*dA*dG*dA*dG*dG*dT*dG*k[5mC]*kT*kA; antisense) [Compound 716492],72
4,716360 (k[5mC]*kT*kG*d[5mC]*d[5mC]*d[5mC]*dG*dG*dG*dA*dT*d[5mC]*d[5mC]*kA*kT*kG; antisense) [Compound 716360],118
5,716573 (kA*kG*kT*dT*dA*d[5mC]*dT*dA*d[5mC]*dT*dG*dT*dA*kA*kT*k[5mC]; antisense) [Compound 716573],116
6,716531 (antisense kG*kG*kA*d[5mC]*dA*dT*dA*dA*dA*dA*d[5mC]*dA*dA*kG*kA*kG) [Compound 716531],65

# Same assay, conditions: Table 18; A-431 cells, 5,000 cells per well, free uptake, 2,000 nM modified oligonucleotide, approx. 48 hours; RTS4814; normalized to RIBOGREEN; Yap1 mRNA as percent of untreated control
row,Substance,YAP1 (% UTC)
1,1075300 (k[5mC]*kG*kT*dG*dA*dA*dA*dA*dG*dA*dA*dA*dG*kG*k[5mC]*k[5mC]; antisense) [Compound 1075300],98
2,1075108 (antisense k[5mC]*kT*kA*dA*dA*dA*dA*d[5mC]*dA*dT*dT*dG*dT*kG*kG*k[5mC]) [Compound 1075108],67

# Same assay, conditions: Table 19; A-431 cells, 5,000 cells per well, free uptake, 2,000 nM modified oligonucleotide, approx. 48 hours; RTS4814; normalized to RIBOGREEN; Yap1 mRNA as percent of untreated control
row,Substance,YAP1 (% UTC)
1,1074981 (antisense kT*kT*kA*dT*dT*dG*d[5mC]*d[5mC]*dA*dG*dT*dT*d[5mC]*kT*kT*kG) [Compound 1074981],9
2,1076197 (kT*kA*kT*dT*dA*dT*d[5mC]*dA*dA*dG*dG*dG*dA*kA*kT*kT; antisense) [Compound 1076197],94
3,1075013 (antisense k[5mC]*kA*kT*dA*dA*dA*d[5mC]*d[5mC]*d[5mC]*dA*d[5mC]*dT*dT*k[5mC]*kG*kA) [Compound 1075013],102
4,1075909 (kA*kA*kA*dT*dA*dA*dG*dG*dA*dG*dT*dA*dG*kG*kT*kG; antisense) [Compound 1075909],93
5,1075269 (antisense kT*kT*kA*dT*dT*dA*dA*d[5mC]*d[5mC]*dT*dG*dG*dA*kG*kA*kG) [Compound 1075269],13

# Same assay, conditions: Table 20; Yap1 mRNA, percent of untreated control; 3-10-3 cEt gapmers targeting SEQ ID NO.: 1 and 2
row,Substance,YAP1 (% UTC)
1,1075878 (kG*kA*kT*dT*dA*dT*d[5mC]*dA*dA*dG*dT*dA*dG*kT*kT*kT; antisense) [Compound 1075878],35
2,1074918 (antisense kT*k[5mC]*kA*dA*dG*dT*dT*dA*d[5mC]*dA*dT*d[5mC]*d[5mC]*k[5mC]*kG*kA) [Compound 1074918],60

# Same assay, conditions: Table 21; Yap1 mRNA, percent of untreated control; 3-10-3 cEt gapmers targeting SEQ ID NO.: 1 and 2
row,Substance,YAP1 (% UTC)
1,1075015 (antisense k[5mC]*kA*kG*dA*dA*dT*dA*dA*dG*dT*dA*dT*dG*kA*kT*kT) [Compound 1075015],55
2,1076167 (kA*kA*kA*dT*dT*dT*dA*d[5mC]*dA*d[5mC]*d[5mC]*dA*d[5mC]*k[5mC]*kG*k[5mC]; antisense) [Compound 1076167],33

# Same assay, conditions: Table 22; Yap1 mRNA as percent of untreated control; 3-10-3 cEt gapmers; single dose
row,Substance,YAP1 (% UTC)
1,1074504 (kT*k[5mC]*kG*dA*dG*dA*dT*dT*dT*dA*dA*dA*dT*kA*kA*kG; antisense) [Compound 1074504],76
2,1074344 (antisense kT*kG*kA*dG*dA*d[5mC]*dA*dT*d[5mC]*d[5mC]*d[5mC]*dG*dG*kG*kA*kG) [Compound 1074344],99
3,1076040 (k[5mC]*kT*kT*dA*dA*dA*dG*dA*dA*dG*d[5mC]*dA*d[5mC]*kT*kA*kG; antisense) [Compound 1076040],105

# Same assay, conditions: Table 23; Yap1 mRNA as percent of untreated control; 3-10-3 cEt gapmers; single dose
row,Substance,YAP1 (% UTC)
1,1074281 (antisense kG*kA*kG*dG*dG*dT*d[5mC]*dA*dA*dG*d[5mC]*d[5mC]*dT*kT*kG*kG) [Compound 1074281],91
2,1074473 (k[5mC]*kA*kA*d[5mC]*d[5mC]*d[5mC]*d[5mC]*d[5mC]*d[5mC]*d[5mC]*dA*d[5mC]*d[5mC]*kG*kA*k[5mC]; antisense) [Compound 1074473],82
3,1074249 (antisense kT*kG*kA*dT*d[5mC]*dG*dA*dT*dG*dT*dG*dA*dT*kT*kT*kA) [Compound 1074249],23
4,1075081 (antisense kG*kA*kT*dT*dA*d[5mC]*dA*dA*dA*dG*dA*d[5mC]*dA*kG*k[5mC]*k[5mC]) [Compound 1075081],7

# Same assay, conditions: Table 24; Yap1 mRNA as percent of untreated control; 3-10-3 cEt gapmers targeting SEQ ID NO.: 1, and 2
row,Substance,YAP1 (% UTC)
1,1075018 (antisense k[5mC]*k[5mC]*kT*dT*dA*dA*dA*dG*dT*dG*dA*dT*dA*k[5mC]*kA*k[5mC]) [Compound 1075018],29
2,1074826 (kA*kA*kA*dT*d[5mC]*d[5mC]*dA*d[5mC]*d[5mC]*dT*dG*dA*dG*k[5mC]*kA*k[5mC]; antisense) [Compound 1074826],51
3,1075466 (antisense kT*k[5mC]*k[5mC]*dA*dA*dA*dA*dA*d[5mC]*d[5mC]*dA*dT*d[5mC]*kA*kG*kT) [Compound 1075466],28
4,1074666 (antisense k[5mC]*kA*kT*dA*dT*dA*d[5mC]*d[5mC]*d[5mC]*dA*dA*dT*dT*kT*kT*kG) [Compound 1074666],16

# Same assay, conditions: Table 25; Yap1 mRNA as percent of untreated control; 3-10-3 cEt gapmers targeting SEQ ID NO.: 1, and 2
row,Substance,YAP1 (% UTC)
1,1076523 (antisense kA*kT*kT*dT*dA*dT*dA*dT*d[5mC]*dA*dG*dG*dT*k[5mC]*kA*kA) [Compound 1076523],5
2,1076363 (k[5mC]*kA*kT*dA*dA*dA*dA*dG*dT*d[5mC]*d[5mC]*dA*d[5mC]*kT*kA*kA; antisense) [Compound 1076363],72

# Same assay, conditions: Table 32; Yap1 mRNA, percent of untreated control; 3-10-3 cEt gapmers targeting SEQ ID NO.: 1, and 2
row,Substance,YAP1 (% UTC)
1,1075154 (k[5mC]*kA*kT*dT*dA*dT*dA*dA*dT*dG*dG*dG*dA*kG*kG*kA; antisense) [compound 1075154],13
2,1075986 (kG*kA*kA*dT*dA*dT*d[5mC]*dG*dA*dA*dA*dA*dG*k[5mC]*kA*kA; antisense) [compound 1075986],26
3,1075794 (k[5mC]*kA*kT*dA*dA*dT*dG*dA*dA*dT*dG*dT*dG*kG*kG*kT; antisense) [compound 1075794],38
4,1075250 (kA*kA*kT*dT*dA*d[5mC]*dG*dA*dT*dT*dA*dG*dA*kT*k[5mC]*kA; antisense) [compound 1075250],55

# Same assay, conditions: Table 33; Yap1 mRNA, percent of untreated control; 3-10-3 cEt gapmers targeting SEQ ID NO.: 1, and 2
row,Substance,YAP1 (% UTC)
1,1074227 (antisense kA*k[5mC]*kT*dG*dT*d[5mC]*dG*dA*dA*dG*dA*dT*dG*k[5mC]*kT*kG) [compound 1074227],10
2,1075603 (antisense kT*kA*kT*dG*dA*dA*d[5mC]*dA*dA*dG*dT*dA*dT*kG*kA*kG) [compound 1075603],35

# Same assay, conditions: Yap1 mRNA as percent of untreated control; A-431 cells; 3-10-3 cEt gapmers targeting SEQ ID NO.: 1, and 2; Table 30
row,Substance,YAP1 (% UTC)
1,1075600 (antisense k[5mC]*kA*k[5mC]*dT*dA*dT*dA*dA*dT*d[5mC]*dT*dG*dA*k[5mC]*k[5mC]*k[5mC]) [compound 1075600],68

# Same assay, conditions: Yap1 mRNA as percent of untreated control; A-431 cells; 3-10-3 cEt gapmers targeting SEQ ID NO.: 1, and 2; Table 31
row,Substance,YAP1 (% UTC)
1,1074641 (antisense kG*kG*k[5mC]*d[5mC]*dA*dA*dA*dA*dT*dA*d[5mC]*dT*dT*kA*kG*kA) [compound 1074641],107
2,1075281 (antisense k[5mC]*kA*kG*d[5mC]*dA*dA*dA*dA*dG*dT*dA*d[5mC]*d[5mC]*kA*kT*kG) [compound 1075281],36
